Data: PMC11513893, “Discovery of Oral Degraders of the ROS1 Fusion Protein with Potent Activity against Secondary Resistance Mutations” (Journal of Medicinal Chemistry, 2024)

Key:
Ba/F3 ROS1 G2032R-F2075V = assay: Antiproliferation assay; type: cell-based; details: Mus musculus, BaF3; Ba/F3 cells, cell growth inhibition
From the text: (§1) To assess targeted degradation of ROS1 fusion proteins, we first established a mouse pro-B cell line Ba/F3 as a model expressing the CD74-ROS1 oncogene or CD74-ROS1 with clinically observed secondary/tertiary mutations. The Ba/F3 cell line is dependent on interleukin-3 for survival and proliferation. Upon transduction of oncogenic ROS1, Ba/F3 cells become independent of interleukin-3 but dependent on the transduced driver gene.
(§2) Ba/F3 immortalized murine bone marrow–derived pro-B cells were obtained from Creative Biogene (Shirley, NY) and cultured in RPMI supplemented with 10% FBS and IL3 (0.5 ng/mL). Ba/F3 cells expressing ROS1 variants were maintained in RPMI supplemented with 10% FBS and puromycin (0.7 mg/mL). […] Each compound was dissolved in DMSO and serially diluted in RPMI for cell culture experiments.
(§3) To assess the 72 h effect of drug treatment on cell proliferation, 2000 to 3000 cells were plated in replicates of three in 96-well plates. The plates were placed in an incubator at 37 °C, 5% CO2 for 72 h. Following drug treatments, the cells were incubated with the Alamar Blue Assay reagent (BioRad), 5 μL each well for 4 h at 37 °C and 5% CO2. Luminescence was measured on a multiplate reader and analyzed. […] IC50 values were determined using a nonlinear regression model with a sigmoidal dose response in GraphPad. The data were collected based on triplicate experiments, and presented as mean ± SD.
(§4) The resulting virus was used to infect Ba/F3 cells. After retroviral infection, Ba/F3 cells were selected by incubation with puromycin (0.7 mg/mL) for 2 weeks. For Ba/F3 cells infected by the CD74–ROS1 variants, IL3 was withdrawn from the culture medium at least 2 weeks before the experiments.

Ba/F3 ROS1 L2026M = assay: Antiproliferation assay; type: cell-based; details: Mus musculus, BaF3; Ba/F3 cells, cell growth inhibition
From the text: as §1, §2, §3, §4

Ba/F3 ROS1 D2033N = assay: Antiproliferation assay; type: cell-based; details: Mus musculus, BaF3; Ba/F3 cells, cell growth inhibition
From the text: as §1, §2, §3, §4

[1] = test system: Ba/F3 cell lines engineered to express the oncogenic ROS1 rearrangement; details: cited from earlier work
[2] = test system: Ba/F3 CD74-ROS1 non mutant; assay: Antiproliferation assay (Alamar Blue, 72 h); type: cell-based, mouse; details: Mus musculus, BaF3, 72 h, Ba/F3 cells, cell growth inhibition
Ba/F3 ROS1 L2086F = assay: Antiproliferation assay; type: cell-based; details: Mus musculus, BaF3; Ba/F3 cells, cell growth inhibition
From the text: as §1, with “gene. The Ba/F3 models have been effectively employed in the discovery and preclinical development of next generation ROS1 inhibitors.[11],[14],[15] We have tested ROS1 inhibitors against these Ba/F3 cells to validate their sensitivity and resistance to ROS1 inhibition.” for “gene.”
(§5) Ba/F3 immortalized murine bone marrow–derived pro-B cells were obtained from Creative Biogene (Shirley, NY) and cultured in RPMI supplemented with 10% FBS and IL3 (0.5 ng/mL). Ba/F3 cells expressing ROS1 variants were maintained in RPMI supplemented with 10% FBS and puromycin (0.7 mg/mL). Crizotinib, ceritinib, brigatinib, repotrectinib, and lorlatinib were purchased from MedChem Express. Each compound was dissolved in DMSO and serially diluted in RPMI for cell culture experiments.
as §3
as §4, with “cDNA encoding CD74-ROS1 or mutant CD74–ROS1 was cloned into retroviral expression vectors (pLenti), and viruses were generated in HEK293T cells by transfecting with packaging plasmids. The” for “The”

Ba/F3 ROS1-G2032R = assay: Antiproliferation assay; type: cell-based, mouse; details: Mus musculus, BaF3; Ba/F3 cells, cell growth inhibition, 72 h
[3] = test system: Ba/F3 ROS1 (SLC34A2) G2032R-D2113G; assay: Antiproliferation assay; type: cell-based; details: Mus musculus, BaF3; Ba/F3 cell line
Description: as §5, §3

[4] = test system: Ba/F3 ROS1 (SLC34A2) G2032R-F2075C; assay: Antiproliferation assay; type: cell-based; details: Mus musculus, BaF3; Ba/F3 cell line
Description: as §5, §3

[5] = test system: Ba/F3 ROS1 (SLC34A2) F2075C-G1837E; assay: Antiproliferation assay; type: cell-based; details: Mus musculus, BaF3; Ba/F3 cell line
Description: as §5, §3

[6] = test system: Ba/F3 ROS1 (SLC34A2) D2033N; assay: Antiproliferation assay; type: cell-based; details: Mus musculus, BaF3; Ba/F3 cell line
Description: as §2, §3

[7] = test system: Ba/F3 ROS1 (SLC34A2) L2026M; assay: Antiproliferation assay; type: cell-based; details: Mus musculus, BaF3; Ba/F3 cell line
Description: as §2, §3

[8] = test system: Ba/F3 ROS1 (SLC34A2) G2032R; assay: Antiproliferation assay; type: cell-based; details: Mus musculus, BaF3; Ba/F3 cell line
Description: as §2, §3

[9] = test system: Ba/F3 ROS1 (SLC34A2) G2032R-F2075 V; assay: Antiproliferation assay; type: cell-based; details: Mus musculus, BaF3; Ba/F3 cell line
Description: as §2, §3

[10] = test system: Ba/F3 ROS1 (CD74) G2032R-L2086F; assay: Antiproliferation assay; type: cell-based; details: Mus musculus, BaF3; Ba/F3 cell line
Description: as §5, §3
as §4, with “cDNA encoding CD74-ROS1 or mutant CD74–ROS1 was cloned into retroviral expression vectors (pLenti), and viruses were generated in HEK293T cells by transfecting with packaging plasmids. The” for “The”

[11] = test system: Ba/F3 ROS1 (CD74) S1986F-L2086F; assay: Antiproliferation assay; type: cell-based; details: Mus musculus, BaF3; Ba/F3 cell line
Description: as §5, §3
as §4, with “cDNA encoding CD74-ROS1 or mutant CD74–ROS1 was cloned into retroviral expression vectors (pLenti), and viruses were generated in HEK293T cells by transfecting with packaging plasmids. The” for “The”

Ba/F3 ROS1 (CD74) L2086F = assay: Antiproliferation assay; type: cell-based; details: Mus musculus, BaF3; Ba/F3 cell line
Description: as §5, §3
as §4, with “cDNA encoding CD74-ROS1 or mutant CD74–ROS1 was cloned into retroviral expression vectors (pLenti), and viruses were generated in HEK293T cells by transfecting with packaging plasmids. The” for “The”

[12] = test system: Ba/F3 ROS1 (CD74) S1986F-G2032R-L2086F; assay: Antiproliferation assay; type: cell-based; details: Mus musculus, BaF3; Ba/F3 cell line
Description: as §5, §3
as §4, with “cDNA encoding CD74-ROS1 or mutant CD74–ROS1 was cloned into retroviral expression vectors (pLenti), and viruses were generated in HEK293T cells by transfecting with packaging plasmids. The” for “The”

Ba/F3 ROS1 (CD74) G2032R = assay: Antiproliferation assay; type: cell-based; details: Mus musculus, BaF3; Ba/F3 cell line
Description: as §5, §3
as §4, with “cDNA encoding CD74-ROS1 or mutant CD74–ROS1 was cloned into retroviral expression vectors (pLenti), and viruses were generated in HEK293T cells by transfecting with packaging plasmids. The” for “The”

[13] = test system: Ba/F3 ROS1 (CD74) S1986F-G2032R; assay: Antiproliferation assay; type: cell-based; details: Mus musculus, BaF3; Ba/F3 cell line
Description: as §5, §3
as §4, with “cDNA encoding CD74-ROS1 or mutant CD74–ROS1 was cloned into retroviral expression vectors (pLenti), and viruses were generated in HEK293T cells by transfecting with packaging plasmids. The” for “The”

[14] = test system: Ba/F3 ROS1 (SLC34A2) V2098I; assay: Antiproliferation assay; type: cell-based; details: Mus musculus, BaF3; Ba/F3 cell line
Description: as §2, §3

[15] = design: method as in PMID 30980071; details: patients; cited from earlier work
[16] = test system: Ba/F3 SLC34A2-ROS1 G2032R xenograft tumors; assay: Mouse efficacy study, Ba/F3 SLC34A2-ROS1 G2032R xenograft; type: in vivo; details: NOD/SCID mice, 30 mg/kg PO qd
Description: (§6) All the procedures related to animal handling, care, and treatment in this study were performed according to guidelines approved by the Institutional Animal Care and Use Committee (IACUC) of Xavier University of Louisiana following the guidance of the AAALAC. Ba/F3-ROS1 and Ba/F3-ROS1-G2032R cells were maintained in RPMI 1640 medium supplemented with 10% fetal bovine serum. The cells growing in an exponential growth phase were harvested and counted for tumor inoculation. Female NOD/SCID mice 6–8 weeks of age were allowed to adapt to laboratory conditions for 10 days prior to dosing and were allowed food and water ad libitum. Each mouse was inoculated subcutaneously in the right flank with Ba/F3 CD74-ROS1 or Ba/F3 SL34A2-ROS1 G2032R cells (1 × 10^6) in 0.2 mL of PBS mixed with Matrigel (50:50) for tumor development.

[17] = test system: Ba/F3 CD74-ROS1 WT xenograft tumors; assay: Mouse efficacy study, Ba/F3 CD74-ROS1 xenograft; type: in vivo; details: NOD/SCID mice, 30 mg/kg PO qd
Description: as §6

SMILES | IC50 (Ba/F3 ROS1 G2032R-F2075V) | IC50 (Ba/F3 ROS1 L2026M) | IC50 (Ba/F3 ROS1 D2033N) | IC50 (Ba/F3 ROS1 L2086F) | IC50 (Ba/F3 ROS1-G2032R) | IC50 [3] | IC50 [4] | IC50 [5] | IC50 [6] | IC50 [7] | IC50 [8] | IC50 [9] | IC50 [10] | IC50 [11] | IC50 (Ba/F3 ROS1 (CD74) L2086F) | IC50 [12] | IC50 (Ba/F3 ROS1 (CD74) G2032R) | IC50 [13] | further results
Cc1cc(Nc2ncc(Cl)c(Nc3ccccc3S(=O)(=O)C(C)C)n2)c(OC(C)C)cc1C1CCNCC1 [ceritinib] | > 2000 nM | 43 ± 5 nM | 135 ± 27 nM | 215 ± 33 nM | 821 ± 148 nM | – | – | – | – | – | – | – | – | – | – | – | – | – | IC50 [1]: 180 nM; IC50 [2]: 14.5 ± 2.2 nM
COc1cc(N2CCC(N3CCN(C)CC3)CC2)ccc1Nc1ncc(Cl)c(Nc2ccccc2P(C)(C)=O)n1 [brigatinib] | 327 ± 43 nM | 48 ± 4 nM | 114 ± 17 nM | 172 ± 24 nM | 265 ± 73 nM | 215 ± 50.3 nM | 869 ± 148 nM | 8.1 ± 2.2 nM | 114 ± 25.3 nM | 47.8 ± 10.2 nM | 490 ± 38.4 nM | 327 ± 44.8 nM | 694 ± 204 nM | 329 ± 85.5 nM | 172 ± 47.6 nM | > 2000 nM | 513 ± 118 nM | 488 ± 96.8 nM | –
C[C@H]1Oc2cc(cnc2N)-c2c(nn(C)c2C#N)CN(C)C(=O)c2ccc(F)cc21 [lorlatinib] | 233 ± 31 nM | 1 ± 0.4 nM | 7.6 ± 1.3 nM | > 2000 nM | 338 ± 55 nM | 142 ± 25.1 nM | > 2000 nM | 0.1 ± 0.1 nM | 7.6 ± 0.5 nM | 1.1 ± 0.2 nM | 244 ± 35.3 nM | 341 ± 75.5 nM | > 2000 nM | > 2000 nM | > 2000 nM | > 2000 nM | 385 ± 76 nM | 503 ± 77.4 nM | IC50 [14]: 1.5 ± 0.4 nM
C[C@@H](Oc1cc(-c2cnn(C3CCNCC3)c2)cnc1N)c1c(Cl)ccc(F)c1Cl [crizotinib] | > 2000 nM | – | 187 ± 39 nM | 745 ± 88 nM | > 2000 nM | – | – | – | – | – | – | – | – | – | – | – | – | – | objective response rate [15]: 72%; progression-free survival [15]: 19.2 months; TGI (tumor growth inhibition) [16]: 7%; TGI (tumor growth inhibition) [17]: 35%
